From PubChem BioAssay AID1963825 (Molecular Pharmacology Branch, DTP, NCI, 2024)

Assay: Anticancer human tumor 997537-175-T-J1-PDC patient-derived colon adenocarcinoma cell line growth inhibition [POLQ]
Settings: 997537-175-T-J1-PDC complex spheroid viability, combination with POLQ inhibitors; for IC50: curve of first compound; for viability, T/C: stronger effect = lower value; active = viability on the fitted dose curve at most 10% of control; inactive = the rest
In short: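 Complex spheroid viability model combining PDC tumour cells with endothelial (HUVEC) and MSC stromal cells. Novobiocin, ART-558 or RP6685 were tested singly and in combination with standard and investigational anticancer drugs. Each was titrated in half-log steps from near clinical Cmax, or from 10 microM where Cmax was unknown.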

[1] = second compound 0.0316 µM, first compound 0.0316 µM
[2] = second compound 0.0316 µM, first compound 0.1 µM
[3] = second compound 0.0316 µM, first compound 0.316 µM
[4] = second compound 0.0316 µM, first compound 1 µM
[5] = second compound 0.0316 µM, first compound 3.16 µM
[6] = second compound 0.0316 µM, first compound 10 µM
[7] = second compound 0.1 µM, first compound 0.0316 µM
[8] = second compound 0.1 µM, first compound 0.1 µM
[9] = second compound 0.1 µM, first compound 0.316 µM
[10] = second compound 0.1 µM, first compound 1 µM
[11] = second compound 0.1 µM, first compound 3.16 µM
[12] = second compound 0.1 µM, first compound 10 µM
[13] = second compound 0.316 µM, first compound 0.0316 µM
[14] = second compound 0.316 µM, first compound 0.1 µM
[15] = second compound 0.316 µM, first compound 0.316 µM
[16] = second compound 0.316 µM, first compound 1 µM
[17] = second compound 0.316 µM, first compound 3.16 µM
[18] = second compound 0.316 µM, first compound 10 µM
[19] = second compound 1 µM, first compound 0.0316 µM
[20] = second compound 1 µM, first compound 0.1 µM
[21] = second compound 1 µM, first compound 0.316 µM
[22] = second compound 1 µM, first compound 1 µM
[23] = second compound 1 µM, first compound 3.16 µM
[24] = second compound 1 µM, first compound 10 µM
[25] = second compound 3.16 µM, first compound 0.0316 µM
[26] = second compound 3.16 µM, first compound 0.1 µM
[27] = second compound 3.16 µM, first compound 0.316 µM
[28] = second compound 3.16 µM, first compound 1 µM
[29] = second compound 3.16 µM, first compound 3.16 µM
[30] = second compound 3.16 µM, first compound 10 µM
[31] = second compound 10 µM, first compound 0.0316 µM
[32] = second compound 10 µM, first compound 0.1 µM
[33] = second compound 10 µM, first compound 0.316 µM
[34] = second compound 10 µM, first compound 1 µM
[35] = second compound 10 µM, first compound 3.16 µM
[36] = second compound 10 µM, first compound 10 µM
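Note: luminescence signal used as a surrogate for viable cells; spheroids exposed to drugs for seven days before readout.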

COc1ccc([C@@H](O)c2cc(-c3ncnc4cc(N5CCOCC5)ccc34)c(F)cc2Cl)nn1 + Cc1cccc(N(C)C(=O)C2C(O)CCN2c2nc(C)cc(C(F)(F)F)c2C#N)c1
inactive: viability, T/C [1] 102% | viability, T/C [2] 108% | viability, T/C [3] 103% | viability, T/C [4] 108% | viability, T/C [5] 101% | viability, T/C [6] 84.3% | viability, T/C [7] 92.3% | viability, T/C [8] 111% | viability, T/C [9] 99.8% | viability, T/C [10] 106% | viability, T/C [11] 101% | viability, T/C [12] 77.7% | viability, T/C [13] 104% | viability, T/C [14] 109% | viability, T/C [15] 106% | viability, T/C [16] 104% | viability, T/C [17] 95.3% | viability, T/C [18] 82.9% | viability, T/C [19] 98.5% | viability, T/C [20] 102% | viability, T/C [21] 91.7% | viability, T/C [22] 109% | viability, T/C [23] 85.7% | viability, T/C [24] 69.7% | viability, T/C [25] 80.8% | viability, T/C [26] 93.4% | viability, T/C [27] 110% | viability, T/C [28] 106% | viability, T/C [29] 88.8% | viability, T/C [30] 72.7% | viability, T/C [31] 101% | viability, T/C [32] 109% | viability, T/C [33] 110% | viability, T/C [34] 112% | viability, T/C [35] 107% | viability, T/C [36] 69.8%
> 10 µM: IC50 (second compound 0.0316 µM) | IC50 (second compound 0.1 µM) | IC50 (second compound 0.316 µM) | IC50 (second compound 1 µM) | IC50 (second compound 3.16 µM) | IC50 (second compound 10 µM)

CNCc1ccc(-c2[nH]c3cc(F)cc4c3c2CCNC4=O)cc1 + Nc1ccc(C#CCN(C(=O)Cc2ncc(C(F)(F)F)cc2C(F)(F)F)c2ccc(F)cc2)nn1
> 10 µM: IC50 (second compound 0.0316 µM) | IC50 (second compound 0.1 µM) | IC50 (second compound 0.316 µM) | IC50 (second compound 1 µM) | IC50 (second compound 3.16 µM) | IC50 (second compound 10 µM)
inactive: viability, T/C [1] 106% | viability, T/C [2] 102% | viability, T/C [3] 100% | viability, T/C [4] 97.1% | viability, T/C [5] 103% | viability, T/C [6] 104% | viability, T/C [7] 98.6% | viability, T/C [8] 102% | viability, T/C [9] 93.2% | viability, T/C [10] 95.5% | viability, T/C [11] 99.2% | viability, T/C [12] 101% | viability, T/C [13] 87.3% | viability, T/C [14] 108% | viability, T/C [15] 106% | viability, T/C [16] 90.8% | viability, T/C [17] 97.7% | viability, T/C [18] 99.7% | viability, T/C [19] 90% | viability, T/C [20] 108% | viability, T/C [21] 102% | viability, T/C [22] 94.6% | viability, T/C [23] 110% | viability, T/C [24] 89.8% | viability, T/C [25] 93.1% | viability, T/C [26] 95.6% | viability, T/C [27] 85.1% | viability, T/C [28] 99.1% | viability, T/C [29] 96.2% | viability, T/C [30] 111% | viability, T/C [31] 87.4% | viability, T/C [32] 104% | viability, T/C [33] 101% | viability, T/C [34] 96.8% | viability, T/C [35] 110% | viability, T/C [36] 114%
